These are literature values, as cited in patent US20050118594A1, “Enzymes” (priority 2001, published 2005).

Each structure is given as a SMILES string. A value given as a limit tells only on which side of the number the result lay.

Setting [1] is: mild hypertriglyceridemia (e.g., triglycerides <400 mg/dl).

For the compound `CC(C)(Oc1ccc(C2CC2(Cl)Cl)cc1)C(=O)O` (centres unmarked) [ciprofibrate], for the setting “second generation agents, compared with gemfibrozil”, the “lowering of VLDL levels” value is on record as “to a degree similar to that produced by gemfibrozil”.

Take `Cc1ccc(C)c(OCCCC(C)(C)C(=O)O)c1` [gemfibrozil]: under setting [1], the “decrease in triglyceride levels” value was at least 50% and the “increase in HDL cholesterol concentrations” value is reported as 15-25%. The “change in LDL cholesterol levels” value (mild hypertriglyceridemia, particularly in subjects with familial combined hyperlipidemia) is “either no change or an increase”. In addition, where the note is “patients with heterozygous familial hypercholesterolemia”, the “decrease in LDL levels” value was 10%.
